# Key:
# human neutrophils [1] = test: Rate of NETs formation in PMA-stimulated neutrophils after pre-treatment, counted by confocal microscopy; format: cell-based; conditions: pre-treatment 10 μM for 30 minutes, then PMA 25 nM
# human neutrophils [2] = test: Specificity experiment: inhibition of NETs formation by DNA concentration in the culture supernatant; format: cell-based; conditions: n=3, p<0.01, FIG. 10
# Procedure: About 1 hour after the isolation of the neutrophils described in “1. Method of isolating human neutrophils” in Example 2, the neutrophils were pre-treated. On an 8-well microslide (Cat. No. ib 80826 Ibidi (registered trademark)), the neutrophils were seeded in 400 μl of culture DMEM+2% human serum Alb (serum human albumin; Product No. A9080 Sigma+4 mM L-glutamine) at a rate of about 1.0×10^5 cells/well, and stimulated with PMA (final concentration: 25 nM, stock: 10 mM in DMSO, Sigma Prod No. P8139). At thirty minutes before the stimulation, and at every one hour or every two hours after the stimulation, 200 μg/ml of human lactoferrin (stock: 100 mg/ml, 200 μl; Cat. No. SIGL6793, SIGMA) was added to perform inhibition [FIG. 2].
# The culture supernatant was recovered and centrifuged at 200×g for 10 minutes, and the supernatant was transferred to a new microscopic centrifuge tube. The DNA amount was measured by use of Picogreen dsDNA assay reagent (P11496 Invitrogen) in accordance with an accompanying protocol. Treatment with human lactoferrin at one hour and two hours after the stimulation was a similar effect to the prior pre-treatment, the DNA concentration in the culture supernatant decreased, resulting in suppression of the release of the DNAs by the NETs [FIG. 2]. […]
# [3] = bovine proteins; cited from earlier work
Compound,"formation of the NETs at plateau, compared with stimulation merely with PMA (human neutrophils [1])",inhibition of the formation of the NETs (human neutrophils [2]),Isoelectric point [3]
"c1ccc2c(c1)[I+]c1ccccc1-2 [DPI, diphenyleneiodoniumchloride, reference compound]",⅓,,
lactoperoxidase [reference compound],,Neither lactoperoxidase nor angiogenin inhibited,8.0
